# Like-named read-outs stand apart in the source and are kept apart here.
# Tested on: cancer cells
# Assay: MTS cell growth inhibition assay (72 hours)
# Assay type: cell-based
# Description: Cells were maintained at 37° C., 5% CO2 in DMEM media supplemented with 1% fetal bovine serum, penicillin/streptomycin and fungizone (Invitrogen). Cells were seeded into 96-well tissue culture plates at 3000 per well and cultured at 37° C. for 18 hours. Test compounds were dissolved and diluted to 300× in DMSO then further diluted 1:40 in DMEM before addition to cells (1:7.5 dilution). Cells were incubated with test compounds for 72 hours followed by incubation with tetrazolium compound (3-(4,5-dimethylthiazol-2-yl)-5-(3-carboxymethoxyphenyl)-2-(4-sulfophenyl)-2H-tetrazolium, inner salt; MTS) and the electron coupling reagent, phenazine methosulfate (PMS) for 4 hours. […] The ability of compounds to inhibit cell growth in this assay is correlated with the reduction of dehydrogenase enzyme activity found in metabolically active cells. The measurement of the absorbance of the formazan was assessed using an ENVISION™ (Perkin Elmer) microplate reader at 492 nm. The calculated IC50 value is the concentration of the test compound that causes a 50% decrease in the absorbance. […] A=>79% inhibition, B=>50 to 79% inhibition, C=<50% inhibition.
# [1] = Homo sapiens, DLD-1, 72 h, DLD-1 cells, read-out: DLD-1 MTS 72 hr at 10 μM
# [2] = Homo sapiens, KATO III, 72 h, KATO III cells, read-out: KATO III MTS 72 hr at 10 μM
# [3] = Homo sapiens, MDA-MB-231, 72 h, MDA-MB-231 cells, read-out: MDA-MB-231 MTS 72 hr at 10 μM
# [4] = Homo sapiens, NCI-H1299, 72 h, NCI-H1299 cells, read-out: NCI-H1299 MTS 72 hr at 10 μM
# [5] = PaCa-2, 72 h, PACA-2 cells, read-out: PACA-2 MTS 72 hr at 10 μM
Compound,inhibition at 10 µM [1] [%],inhibition at 10 µM [2] [%],inhibition at 10 µM [3] [%],inhibition at 10 µM [4] [%],inhibition at 10 µM [5] [%]
"Nc1nc(NC2Cc3ccccc3N(S(=O)(=O)c3cc(Cl)ccc3Cl)C2)c2cn[nH]c2n1 (stereo not shown) [Compound 32, N4-(1-(2,5-dichlorophenylsulfonyl)-1,2,3,4-tetrahydroquinolin-3-yl)-1H-pyrazolo[3,4-d]pyrimidine-4,6-diamine]",50 to 79,> 79,< 50,< 50,< 50
"COc1ccc(-c2ccc(S(=O)(=O)N3CC(Nc4nc(N)nc5[nH]ncc45)Cc4ccccc43)cc2)cc1 (stereo not shown) [Compound 60, N4-(1-(4′-methoxybiphenyl-4-ylsulfonyl)-1,2,3,4-tetrahydroquinolin-3-yl)-1H-pyrazolo[3,4-d]pyrimidine-4,6-diamine]",< 50,< 50,< 50,< 50,< 50
"Nc1nc(NC2CCN(S(=O)(=O)c3cccc(F)c3)c3ccccc3C2)c2cn[nH]c2n1 (stereo not shown) [Compound 169, N4-{1-[(3-fluorophenyl)sulfonyl]-2,3,4,5-tetrahydro-1H-1-benzazepin-4-yl}-1H-pyrazolo[3,4-d]pyrimidine-4,6-diamine]",< 50,< 50,< 50,< 50,< 50
"Nc1nc(NC2CCN(S(=O)(=O)c3ccc(Cl)cc3)c3ccccc3C2)c2cn[nH]c2n1 (stereo not shown) [Compound 171, N4-{1-[(4-chlorophenyl)sulfonyl]-2,3,4,5-tetrahydro-1H-1-benzazepin-4-yl}-1H-pyrazolo[3,4-d]pyrimidine-4,6-diamine]",< 50,< 50,< 50,< 50,< 50
"CCOC(=O)c1ccc(NC(=O)N2CC(Nc3nc(N)nc4[nH]ncc34)Cc3ccccc32)cc1 (stereo not shown) [Compound 114, ethyl 4-(3-(6-amino-1H-pyrazolo[3,4-d]pyrimidin-4-ylamino)-1,2,3,4-tetrahydroquinoline-1-carboxamido)benzoate]",> 79,< 50,< 50,< 50,< 50
"Cc1ccc(C)c(S(=O)(=O)N2CCC(Nc3nc(N)nc4[nH]ncc34)Cc3ccccc32)c1 (stereo not shown) [Compound 184, N4-{1-[(2,5-dimethylphenyl)sulfonyl]-2,3,4,5-tetrahydro-1H-1-benzazepin-4-yl}-1H-pyrazolo[3,4-d]pyrimidine-4,6-diamine]",< 50,< 50,< 50,< 50,< 50
"COc1ccc(CC(=O)N2CC(Nc3nc(N)nc4[nH]ncc34)Cc3ccccc32)cc1OC (stereo not shown) [Compound 95, 1-(3-(6-amino-1H-pyrazolo[3,4-d]pyrimidin-4-ylamino)-3,4-dihydroquinolin-1(2H)-yl)-2-(3,4-dimethoxyphenyl)ethanone]",< 50,< 50,< 50,< 50,< 50
"Nc1nc(NC2Cc3ccccc3N(S(=O)(=O)c3cc(C(F)(F)F)ccc3Cl)C2)c2cn[nH]c2n1 (stereo not shown) [Compound 66, N4-(1-(2-chloro-5-(trifluoromethyl)phenylsulfonyl)-1,2,3,4-tetrahydroquinolin-3-yl)-1H-pyrazolo[3,4-d]pyrimidine-4,6-diamine]",< 50,< 50,< 50,< 50,< 50
"Nc1nc(NC2Cc3ccccc3N(S(=O)(=O)c3cccc(OC(F)(F)F)c3)C2)c2cn[nH]c2n1 (stereo not shown) [Compound 70, N4-(1-(3-(trifluoromethoxy)phenylsulfonyl)-1,2,3,4-tetrahydroquinolin-3-yl)-1H-pyrazolo[3,4-d]pyrimidine-4,6-diamine]",< 50,50 to 79,< 50,< 50,< 50
"CC(C)(C)c1ccc(OCC(=O)N2CC(Nc3nc(N)nc4[nH]ncc34)Cc3ccccc32)cc1 (stereo not shown) [Compound 97, 1-(3-(6-amino-1H-pyrazolo[3,4-d]pyrimidin-4-ylamino)-3,4-dihydroquinolin-1(2H)-yl)-2-(4-tert-butylphenoxy)ethanone]",50 to 79,50 to 79,50 to 79,< 50,< 50
"CC(C)(C)CC(=O)N1CC(Nc2nc(N)nc3[nH]ncc23)Cc2ccccc21 (stereo not shown) [Compound 94, 1-(3-(6-amino-1H-pyrazolo[3,4-d]pyrimidin-4-ylamino)-3,4-dihydroquinolin-1(2H)-yl)-3,3-dimethylbutan-1-one]",< 50,< 50,< 50,< 50,< 50
"Nc1nc(NC2CCN(S(=O)(=O)c3cc(Cl)cc(Cl)c3)c3ccccc3C2)c2cn[nH]c2n1 (stereo not shown) [Compound 174, N4-{1-[(3,5-dichlorophenyl)sulfonyl]-2,3,4,5-tetrahydro-1H-1-benzazepin-4-yl}-1H-pyrazolo[3,4-d]pyrimidine-4,6-diamine]",50 to 79,50 to 79,< 50,< 50,50 to 79
"Nc1nc(NC2Cc3ccccc3N(S(=O)(=O)c3cccc(NC(=O)Nc4cc(C(F)(F)F)ccc4F)c3)C2)c2cn[nH]c2n1 (stereo not shown) [Compound 220, 1-[3-({3-[(6-amino-1H-pyrazolo[3,4-d]pyrimidin-4-yl)amino]-3,4-dihydroquinolin-1(2H)-yl}sulfonyl)phenyl]-3-[2-fluoro-5-(trifluoromethyl)phenyl]urea]",> 79,> 79,> 79,> 79,> 79
"Nc1nc(NC2CCN(S(=O)(=O)c3ccsc3)c3ccccc3C2)c2cn[nH]c2n1 (stereo not shown) [Compound 167, N4-[1-(3-thienylsulfonyl)-2,3,4,5-tetrahydro-1H-1-benzazepin-4-yl]-1H-pyrazolo[3,4-d]pyrimidine-4,6-diamine]",< 50,< 50,< 50,< 50,< 50
"Nc1nc(NC2Cc3ccccc3N(S(=O)(=O)Cc3ccccc3)C2)c2cn[nH]c2n1 (stereo not shown) [Compound 21, N4-(1-(benzylsulfonyl)-1,2,3,4-tetrahydroquinolin-3-yl)-1H-pyrazolo[3,4-d]pyrimidine-4,6-diamine]",> 79,> 79,50 to 79,< 50,> 79
"Nc1nc(NC2Cc3ccccc3N(C(=O)c3ccccc3Br)C2)c2cn[nH]c2n1 (stereo not shown) [Compound 81, (3-(6-amino-1H-pyrazolo[3,4-d]pyrimidin-4-ylamino)-3,4-dihydroquinolin-1(2H)-yl)(2-bromophenyl)methanone]",50 to 79,> 79,> 79,< 50,50 to 79
"Nc1nc(NC2Cc3ccccc3N(S(=O)(=O)c3ccc(NC(=O)Nc4ccc5c(c4)Cc4ccccc4-5)cc3)C2)c2cn[nH]c2n1 (stereo not shown) [Compound 198, 1-[4-({3-[(6-amino-1H-pyrazolo[3,4-d]pyrimidin-4-yl)amino]-3,4-dihydroquinolin-1(2H)-yl}sulfonyl)phenyl]-3-(9H-fluoren-2-yl)urea]",> 79,> 79,< 50,> 79,< 50
"Nc1nc(NC2Cc3ccccc3N(S(=O)(=O)c3ccc(Oc4ccccc4)cc3)C2)c2cn[nH]c2n1 (stereo not shown) [Compound 27, N4-(1-(4-phenoxyphenylsulfonyl)-1,2,3,4-tetrahydroquinolin-3-yl)-1H-pyrazolo[3,4-d]pyrimidine-4,6-diamine]",> 79,> 79,> 79,50 to 79,> 79
"CS(=O)(=O)c1ccc(CN2CC(Nc3nc(N)nc4[nH]ncc34)Cc3ccccc32)cc1 (stereo not shown) [Compound 139, N4-{1-[4-(methylsulfonyl)benzyl]-1,2,3,4-tetrahydroquinolin-3-yl}-1H-pyrazolo[3,4-d]pyrimidine-4,6-diamine]",> 79,> 79,< 50,< 50,50 to 79
"Nc1nc(NC2Cc3ccccc3N(S(=O)(=O)c3ccc(NC(=O)Nc4cc(F)cc(C(F)(F)F)c4)cc3)C2)c2cn[nH]c2n1 (stereo not shown) [Compound 197, 1-[4-({3-[(6-amino-1H-pyrazolo[3,4-d]pyrimidin-4-yl)amino]-3,4-dihydroquinolin-1(2H)-yl}sulfonyl)phenyl]-3-[3-fluoro-5-(trifluoromethyl)phenyl]urea]",> 79,> 79,> 79,> 79,> 79
